Consider 13 compounds from paper PMC10610016, “New Hybrid Compounds Incorporating Natural Products as Multifunctional Agents against Alzheimer’s Disease” (Pharmaceutics, 2023).

Data set [1] in a line: Colorimetric Cu2+ chelation with pyrocatechol violet (PV). In kind it is physicochemical. Particulars: compound 200 µM, CuSO4 200 µM, PV 200 µM. On the procedure: (§1) Due to a non-measurable UV absorbance for compounds 4a and 5c, a different protocol using pyrocatechol violet (PV) was applied. The compounds (200 µM) incubated for 10 min with CuSO4 (200 µM), after 200 µM PV was added and the plate was incubated at 25 °C for 20 min. The absorption spectra were recorded. The same protocol was used for Fe^2+ (FeSO4) in presence of ferrozine.

Data set [2] in a line: Colorimetric Fe2+ chelation with ferrozine. In kind it is physicochemical. Particulars: FeSO4, ferrozine. On the procedure:
as §1

The nature of data set [3]: UV–Vis metal binding study, Cu2+ (mole ratio method). In kind it is physicochemical. Particulars: for stoichiometry for the Cu2+–ligand complex (molar fraction analysis): ligand 20 µM, Cu2+ 0 to 80 µM; for shift in UV spectrum in the presence of Cu2+ (first screening): ligand 20 μM, Cu2+ 80 µM, MeOH. The procedure: (§2) The synthesized compounds were tested for their metal chelating effect through spectroscopic measurements. The UV–Vis absorbance of compounds was recorded in the absence and presence of metal ions using a UV–Vis spectrometer (a SPECTROstarNano (220–1000 nm), Ortenberg, Germany. The experiment was performed in 96-well plates and each experiment was made in triplicates. A fixed amount of investigated ligand (20 μM) solubilized in MeOH was mixed with increasing concentration of Cu^2+ (CuCl2), Fe^2+ (FeSO4) and Zn^2+ (ZnCl2) from 0 to 80 μM and incubated for 30 min at room temperature (r.t.). The absorbance change was monitored at wavelengths ranging from 220 to 700 nm. The stoichiometry of studied compounds for Cu^2+ and Fe^2+ complexes was determined by employing the mole ratio method.

Data set [4] in a line: DPPH radical scavenging assay. Particulars: for %AA (percentage of antioxidant activity), DPPH: compound 100 µM, DPPH 60 µM in MeOH, 1 h; for EC50 / TEAC (Trolox equivalent antioxidant capacity), DPPH: mean ± SEM of three independent experiments. In kind it is biochemical. On the procedure:
The DPPH assay was carried out in a 96-microwell plate according to a previously described protocol. In brief, DPPH solution (60 µM in MeOH) was added to studied compounds or MeOH as the control. The 96-microwell plate was incubated (in the dark, at r.t. for 1 h) and the absorbance values were read at 517 nm by a SPECTROstarNano (220–1000 nm) UV–Vis spectrophotometer, Ortenberg, Germany. During the first screening, all compounds were tested ad 100 µM, then for compounds 2a–c the EC50 (effective concentration), the concentration of substrate that causes a 50% reduction in the DPPH colour, was calculated.
All experiments were made in triplicate. The percentage of the antioxidant activity (%AA) of the compounds was determined according to Equation (1):%AA = ((AbsDPPH − Abssample)/AbsDPPH) × 100(1)
AbsDPPH is the absorbance of DPPH solution, and Abssample is the absorbance of DPPH solution containing the tested compound.
Each concentration was tested in triplicate and the EC50 value was reported as the mean ± the standard error of the mean (SEM) of three independent experiments.

Data set [5] is described as follows: ABTS assay. In kind it is biochemical. Particulars: for radical scavenger / antioxidant activity, ABTS: compound 100 µM; for EC50 / TEAC, ABTS: mean ± SEM of three independent experiments. On the procedure: The ABTS assay was performed according to the methods reported in literature. Briefly, 7 mM of ABTS was mixed with 2.45 mM of K2S2O8 solution, ratio 1:1, in 10 mM phosphate buffer (pH 7.4). The mixture was incubated in a dark box at r.t. for 12 h, then the stock solution was diluted until the absorbance was 0.70 ± 0.02 at 734 nm.
In a 96-well plate, 190 µL ABTS working solution and 10 µL sample solution (compounds 2a–c, 3a–c at concentration of 100 μM) were mixed and the absorbance was measured (734 nm) using a SPECTROstarNano (220–1000 nm) UV–Vis spectrophotometer, Ortenberg, Germany. Then, for compounds 2a–c the EC50 was calculated and the values were expressed in TEAC equivalents. Each concentration was tested in triplicate and the EC50 was reported as the mean ± SEM of three independent experiments.

Data set [6] deals with T1, Aβ1-40 (Homo sapiens, UniProt P05067).
T1 construct: Aβ1-40 was obtained from Bachem (Bubendorf, Switzerland); purchased Bachem (Bubendorf, Switzerland)
T1 sequence (P05067 672-711 limits assumed): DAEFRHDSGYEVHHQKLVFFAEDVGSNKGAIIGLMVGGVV
Description: Thioflavin T (ThT) fluorescence assay of Aβ1-40 fibril formation. In kind it is biochemical. The following applies: for inhibition of Aβ1-40 fibril formation (ThT): Aβ1-40 10 µM. On the procedure: Aβ1-40 was obtained from Bachem (Bubendorf, Switzerland). To remove preformed aggregates, it was dissolved during 15–20 min at r.t. in 1% NH4OH to give a concentration of 2 mg/mL, followed by immediate lyophilisation. The Aβ1-40 peptide was then dissolved in an aqueous 1% ammonia solution to a concentration of 1 mM and then, just prior to use, was diluted to 0.2 mM with 10 mM Tris-HCl, 100 mM NaCl buffer (pH 7.4). Compounds (2a–c) were dissolved in DMSO (4.9 mM), while TTR in phosphate buffer 20 mM buffer (pH 7.4) at 1 mM concentration. ThT fluorescence was measured to evaluate the development of Aβ1-40 fibrils over time using a fluorescence plate reader (Vantastar, BMG lab-tech, Ortenberg, Germany) with standard 96-well black microliter plates. The ThT fluorescence intensity was recorded by using excitation/emission settings at 440−15 nm/480−15nm for 21 h and applying a double orbital shaking of 10 s before the first cycle. Experiments were triggered by adding Aβ1-40 achieving a final concentration of 10 μM into a mixture containing 40 μM ThT in 10 mM Tris-HCl, 100 mM NaCl buffer (pH 7.4) with and without the studied compounds (10 μM) at 25 °C, and with and without CuCl2 (10 µM). When TTR was assessed in the presence of compound 2a, the ratio between TTR and 2a was adjusted to 1:2 (TTR:2a) in order to let the compound interacting with both hydrophobic pockets. A time of 3 h of incubation was employed before adding the solution into the well. The F reduction is depicted as the intensity of experimental fluorescence plateau observed with the studied compound relative to the value obtained without the compound and is quantified as the following percentage: ((F Aβ1-40+compound − F Aβ1-40)/(F Aβ1-40)) × 100. The data of fluorescence intensity come from at least two independent experiments, where each condition has been performed in duplicate, in the case of the presence of TTR (10 µM), or triplicate, in the case of the absence of TTR (10 µM), respectively. The values are given as averaged percentage ± SEM.

The nature of data set [7]: UV–Vis metal binding study, Fe2+ (mole ratio method). In kind it is physicochemical. The procedure:
as §2

The target in data set [8] is T2, Human Plasma TTR (Homo sapiens, UniProt P02766).
T2 construct: purchased Merck Millipore, Molsheim, France; host or cells: human plasma
The data set is described as follows: ANS competitive binding (displacement) assay. The following applies: TTR 8 µM, ANS 16 µM. On the procedure: The binding of ANS (8-anilino-1-naphthalenesulfonic acid), Sigma-Aldrich (St. Louis, MO, USA) and its displacement by the three selected compounds 2a–c were studied using Human Plasma TTR (Merck Millipore, Molsheim, France) according to the protocol previously described. Briefly, TTR (8 µM) was incubated with ANS (16 µM) at r.t. for 15 min in 96-well plates. Then, compounds 2a–c at concentrations of 100 µM were added. After 10 min, the fluorescent emission spectra (400–540 nm) were recorded exciting at 280 nm using Molecular Devices SpectraMax Gemini XPS plate reader, (San Jose, CA, USA). For compounds 2a, the IC50 was calculated and value was expressed as the mean ± SEM of the triplicate. All experiments were made in triplicate and, the fluorescence increases of ANS bound to TTR solution compared to its control without TTR, and TTR alone, in phosphate buffer, were used as a control.

Details of data set [9]: method as in PMID 31055242. Particulars: literature value; cited from earlier work.
On the set-up of data set [10]: method as in PMID 31055242. Particulars: literature value; cited from earlier work. The source holds these as a separate data set.

Where “and” joins values, the source holds several entries; their conditions need not be identical. Identical values can stand only once. Like-named read-outs stand apart in the source and are kept apart here.

On to `CCCC(CCC)C(=O)NOCc1ccccc1C(F)(F)F` [Compound 4a, 2-propyl-N-((2-(trifluoromethyl)benzyl)oxy)pentanamide], for which the melting point was in the range of 73 to 75 °C. In [1], the “interaction with Cu2+, colorimetric method with PV” value is listed as “slight shift”. In [2], the “interaction with Fe2+, colorimetric method with ferrozine” value is “No interaction”.

`O=C(C=Cc1ccccc1)NOCc1ccccc1C(F)(F)F` [Compound 1a, N-((2-(trifluoromethyl)benzyl)oxy)cinnamamide] registered a melting point of 91 to 93 °C. Moreover, in data set [3], the “stoichiometry for the Cu2+–ligand complex (molar fraction analysis)” value worked out at 1.0 and the “shift in UV spectrum in the presence of Cu2+ (first screening)” value (“shift in UV spectrum in the presence” below) is on record as “significant shift”.

`O=C(/C=C/c1ccc(O)c(O)c1)NOCc1ccc(C(F)(F)F)cc1` [Compound 2c] displayed a melting point of 188 to 190 °C. In addition, in data set [4], the “%AA (percentage of antioxidant activity), DPPH” value is 96% and 58%; a half-maximal response (EC50) required 6 ± 0.1 µM; the “TEAC (Trolox equivalent antioxidant capacity), DPPH” value was 10.4 ± 0.4 µM. In [5], the “radical scavenger / antioxidant activity, ABTS” value was 97.3%; the EC50 was 22.9 ± 0.5 µM; the “TEAC, ABTS” value was found to be 11.8 ± 0.02 µM.

For the compound `O=C(/C=C/c1ccc(O)cc1O)NOCc1ccc(C(F)(F)F)cc1` [Compound 3c, (E)-3-(2,4-dihydroxyphenyl)-N-((4-(trifluoromethyl)benzyl)oxy)acrylamide], the melting point lay in the range of 176 to 178 °C. Further, the “radical scavenger / antioxidant activity, ABTS” value in data set [5] stood at 65%.

As to `CCCC(CCC)C(=O)NOCc1ccc(C(F)(F)F)cc1` [Compound 4c, 2-propyl-N-((4-(trifluoromethyl)benzyl)oxy)pentanamide], the melting point lay in the range of 78 to 80 °C.

Turning to `O=C(C=Cc1ccccc1)NOCc1cccc(C(F)(F)F)c1` [Compound 1b, N-((3-(trifluoromethyl)benzyl)oxy)cinnamamide], the melting point was in the range of 91 to 93 °C.

Compound `O=C(C=Cc1ccccc1)NOCc1ccc(C(F)(F)F)cc1` [Compound 1c, N-((4(trifluoromethyl)benzyl)oxy)cinnamamide] had a melting point of 148 to 150 °C.

Take `CCCC(CCC)C(=O)NOCc1cccc(C(F)(F)F)c1` [Compound 4b, 2-propyl-N-((3-(trifluoromethyl)benzyl)oxy)pentanamide]: the melting point fell in the range of 74 to 76 °C.

As for `O=C(/C=C/c1ccc(O)cc1O)NOCc1ccccc1C(F)(F)F` [Compound 3a, (E)-3-(2,4-dihydroxyphenyl)-N-((2-(trifluoromethyl)benzyl)oxy)acrylamide], the melting point was in the range of 165 to 167 °C. Moreover, the “%AA (percentage of antioxidant activity), DPPH” value in data set [4] amounted to 59%. For the same compound, the “radical scavenger / antioxidant activity, ABTS” value in [5] is given as 68%. In addition, in data set [3], the “stoichiometry for the Cu2+–ligand complex (molar fraction analysis)” value is given as “around 2” and the “shift in UV spectrum in the presence” value is listed as “significant shift”.

As for `O=C(/C=C/c1ccc(O)c(O)c1)NOCc1ccccc1C(F)(F)F` [Compound 2a, (E)-3-(3,4-dihydroxyphenyl)-N-((2-(trifluoromethyl)benzyl)oxy)acrylamide], the melting point is 80 to 82 °C. For the same compound, the “effect on Aβ1-40 fibril formation (ThT)” value in data set [6] (TTR 10 µM pre-incubated with 2a 20 µM (1:2 TTR/2a), without Cu2+) was “slight positive effect”. In data set [6] (with Cu2+ 10 µM, compound 10 µM), the “inhibition of Aβ1-40 fibril formation (ThT)” value is on record as “completely inhibition of the fibril formation”. The “inhibition of Aβ1-40 fibril formation (ThT)” value in data set [6] (without Cu2+, compound 10 µM (1:1 ratio)) is recorded as “discrete inhibitory activity”. Moreover, the “molar fraction of the 2a–Fe2+ complex” value in data set [7] (Fe2+ 0 to 30 µM, absorbance changes at 330 nm) is 1. Also, the “change in UV spectrum when Fe2+ was added (first screening)” value in [7] (ligand 20 μM, Fe2+ 80 µM, MeOH) is listed as “weak change”. Also, the IC50 in data set [8] (mean ± SEM of triplicate) came to 31.9 µM. The “displacement of ANS from TTR” value in [8] (compound 100 µM) is reported as 71%. In addition, in data set [4], the “%AA (percentage of antioxidant activity), DPPH” value came to 95%; it took 8.9 ± 0.2 µM to reach a half-maximal effect (EC50); the “TEAC (Trolox equivalent antioxidant capacity), DPPH” value is 12.4 ± 0.4 µM. In data set [5], the “radical scavenger / antioxidant activity, ABTS” value was 99.1%; the EC50 turned out to be 9.9 ± 0.2 µM; the “TEAC, ABTS” value was found to be 11.3 ± 0.1 µM. Further, the “shift in UV spectrum in the presence” value in data set [3] is on record as “significant shift”.

`O=C(/C=C/c1ccc(O)cc1O)NOCc1cccc(C(F)(F)F)c1` [Compound 3b, (E)-3-(2,4-dihydroxyphenyl)-N-((3-(trifluoromethyl)benzyl)oxy)acrylamide] displayed a melting point of 157 to 158 °C. In data set [4], the “%AA (percentage of antioxidant activity), DPPH” value is listed as 60%. Also, the “radical scavenger / antioxidant activity, ABTS” value in [5] was determined as 67%.

In the case of `O=C(O)/C=C/c1ccc(O)c(O)c1` [caffeic acid], the EC50 was 13.3 µM in [9] and 10.9 µM in data set [10].

Take `O=C(CCCC[C@@H]1CCSS1)NOCc1ccccc1C(F)(F)F` [Compound 5a, (R)-5-(1,2-dithiolan-3-yl)-N-((2-(trifluoromethyl)benzyl)oxy)pentanamide]: the “interaction with Cu2+, colorimetric method with PV” value in data set [1] is “slight shift”. Moreover, the “interaction with Fe2+, colorimetric method with ferrozine” value in data set [2] is recorded as “No interaction”.
